Reference: patent publication US20240016784A1, “Y BOX BINDING PROTEIN 1 INHIBITORS” (Oregon Health & Science University, priority 2020, published 2024)

Experiments:
[1] = biological target: T1, CALM3 (Homo sapiens, UniProt P0DP25); experiment: Cellular Thermal Shift Assay (CETSA) in OVCAR8 cells; format: binding; details: SU056 2.5 μM, 1.5 h, read-out: increase in thermal stability (Tm shift) of CALM3
T1 construct: endogenous in cells; host or cells: OVCAR8
Description: (§1) The cellular thermal shift assay (CETSA) is based on the principle of protein-ligand interactions causing a shift in protein thermal stability (Savitski et al., 2014). When a protein interacts with ligand, its thermal stability increases, and this principle allows identification of which protein targets that are engaged by small molecules or drug candidates. We used this assay to identify protein targets of SU056. OVCAR8 cells were treated with SU056 (2.5 μM) for 1.5 h, and protein lysates were analyzed for a thermal shift. The heat maps represent the thermal stability of 804 soluble proteins in the presence and absence of SU056 compare with 37° C. (FIG. 3A).
(§2) Cellular Thermal Shift Assay (CETSA): The assay was performed as previously described (Savitski et al., 2014). Briefly, OVCAR8 cells were treated with vehicle (DMSO) or SU056 (2.5 μM) at 70-80% confluency for 1.5 h. Cells were harvested and washed with 1×PBS twice. Cells were pelleted and resuspended in PBS. 10 different PCR tubes with 1×10^6 cells/tube (in 100 μL PBS) were prepared for both the groups. Tubes were exposed to respective temperatures (37, 41, 44, 47, 50, 53, 56, 59, 63, 67° C.) for 3 min using a thermal cycler (Bio-Rad, CA, USA) followed by 2 min incubation at room temperature.

[2] = biological target: T2, PSMB2 (Homo sapiens, UniProt P49721); experiment: as above; format: binding; details: SU056 2.5 μM, 1.5 h, read-out: increase in thermal stability (Tm shift) of PSMB2
T2 construct: endogenous in cells; host or cells: OVCAR8
Description: as §1, §2

[3] = biological target: T3, SUMO2 (Homo sapiens, UniProt P61956); experiment: as above; format: binding; details: SU056 2.5 μM, 1.5 h, read-out: increase in thermal stability (Tm shift) of SUMO2
T3 construct: endogenous in cells; host or cells: OVCAR8
T3 sequence (P61956 1-93 limits assumed): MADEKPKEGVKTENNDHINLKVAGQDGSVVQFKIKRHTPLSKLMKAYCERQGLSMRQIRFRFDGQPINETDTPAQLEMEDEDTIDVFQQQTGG
Description: as §1, §2

[4] = biological target: T4, TMSB10 (Homo sapiens, UniProt P63313); experiment: as above; format: binding; details: SU056 2.5 μM, 1.5 h, read-out: increase in thermal stability (Tm shift) of TMSB10
T4 construct: endogenous in cells; host or cells: OVCAR8
T4 sequence (P63313 whole entry): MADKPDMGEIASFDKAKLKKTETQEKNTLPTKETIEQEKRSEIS
Description: as §1, §2

[5] = biological target: T5, TMSB4X (Homo sapiens, UniProt P62328); experiment: as above; format: binding; details: SU056 2.5 μM, 1.5 h, read-out: increase in thermal stability (Tm shift) of TMSB4X
T5 construct: endogenous in cells; host or cells: OVCAR8
T5 sequence (P62328 whole entry): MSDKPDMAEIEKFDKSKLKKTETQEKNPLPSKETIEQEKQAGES
Description: as §1, §2

[6] = system: 786-0; experiment: NCI-60 cell line panel; format: cell-based; details: Homo sapiens, 48 hours
From the text: (§3) FIG. 17: Assay of SU056 in NCI-60 cell line panel.

[7] = system: A498; experiment: NCI-60 cell line panel; format: cell-based; details: Homo sapiens, 48 hours
From the text: as §3

[8] = system: A549/ATCC; experiment: NCI-60 cell line panel; format: cell-based; details: Homo sapiens, 48 hours
From the text: as §3

[9] = system: CCRF-CEM; experiment: NCI-60 cell line panel; format: cell-based; details: Homo sapiens, 48 hours
From the text: as §3

[10] = system: DU-145; experiment: NCI-60 cell line panel; format: cell-based; details: Homo sapiens, 48 hours
From the text: as §3

[11] = system: EKVX; experiment: NCI-60 cell line panel; format: cell-based; details: Homo sapiens, 48 hours
From the text: as §3

[12] = system: HCC-2998; experiment: NCI-60 cell line panel; format: cell-based; details: Homo sapiens, 48 hours
From the text: as §3

[13] = system: HCT-116; experiment: NCI-60 cell line panel; format: cell-based; details: Homo sapiens, 48 hours
From the text: as §3

[14] = system: HT29; experiment: NCI-60 cell line panel; format: cell-based; details: Homo sapiens, HT-29, 48 hours
From the text: as §3

[15] = system: IGROV1; experiment: NCI-60 cell line panel; format: cell-based; details: Homo sapiens, IGROV-1, 48 hours
From the text: as §3

[16] = system: K-562; experiment: NCI-60 cell line panel; format: cell-based; details: Homo sapiens, K562, 48 hours
From the text: as §3

[17] = system: M14; experiment: NCI-60 cell line panel; format: cell-based; details: Homo sapiens, 48 hours
From the text: as §3

[18] = system: MCF7; experiment: NCI-60 cell line panel; format: cell-based; details: Homo sapiens, 48 hours
From the text: as §3

[19] = system: MDA-MB-435; experiment: NCI-60 cell line panel; format: cell-based; details: Homo sapiens, 48 hours
From the text: as §3

[20] = system: MDA-MB-468; experiment: NCI-60 cell line panel; format: cell-based; details: Homo sapiens, 48 hours
From the text: as §3

[21] = system: MOLT-4; experiment: NCI-60 cell line panel; format: cell-based; details: Homo sapiens, 48 hours
From the text: as §3

[22] = system: NCI-H226; experiment: NCI-60 cell line panel; format: cell-based; details: Homo sapiens, 48 hours
From the text: as §3

[23] = system: NCI-H23; experiment: NCI-60 cell line panel; format: cell-based; details: Homo sapiens, 48 hours
From the text: as §3

[24] = system: NCI/ADR-RES; experiment: NCI-60 cell line panel; format: cell-based; details: Homo sapiens, 48 hours
From the text: as §3

[25] = system: OVCAR-3; experiment: NCI-60 cell line panel; format: cell-based; details: Homo sapiens, 48 hours
From the text: as §3

[26] = system: OVCAR-5; experiment: NCI-60 cell line panel; format: cell-based; details: Homo sapiens, 48 hours
From the text: as §3

[27] = system: RPMI-8226; experiment: NCI-60 cell line panel; format: cell-based; details: Homo sapiens, 48 hours
From the text: as §3

[28] = system: SK-MEL-5; experiment: NCI-60 cell line panel; format: cell-based; details: Homo sapiens, 48 hours
From the text: as §3

[29] = system: SN12C; experiment: NCI-60 cell line panel; format: cell-based; details: Homo sapiens, 48 hours
From the text: as §3

[30] = system: SNB-19; experiment: NCI-60 cell line panel; format: cell-based; details: Homo sapiens, 48 hours
From the text: as §3

[31] = system: SNB-75; experiment: NCI-60 cell line panel; format: cell-based; details: Homo sapiens, 48 hours
From the text: as §3

[32] = system: SW-620; experiment: NCI-60 cell line panel; format: cell-based; details: Homo sapiens, 48 hours
From the text: as §3

[33] = system: U251; experiment: NCI-60 cell line panel; format: cell-based; details: Homo sapiens, U-251, 48 hours
From the text: as §3

[34] = system: UACC-257; experiment: NCI-60 cell line panel; format: cell-based; details: Homo sapiens, 48 hours
From the text: as §3

[35] = system: UACC-62; experiment: NCI-60 cell line panel; format: cell-based; details: Homo sapiens, 48 hours
From the text: as §3

[36] = biological target: YB-1 (Homo sapiens, UniProt P67809); experiment: Pulldown assay using biotinylated SU056; details: OVCAR8 cells and protein lysate
YB-1, sequence (P67809 whole entry): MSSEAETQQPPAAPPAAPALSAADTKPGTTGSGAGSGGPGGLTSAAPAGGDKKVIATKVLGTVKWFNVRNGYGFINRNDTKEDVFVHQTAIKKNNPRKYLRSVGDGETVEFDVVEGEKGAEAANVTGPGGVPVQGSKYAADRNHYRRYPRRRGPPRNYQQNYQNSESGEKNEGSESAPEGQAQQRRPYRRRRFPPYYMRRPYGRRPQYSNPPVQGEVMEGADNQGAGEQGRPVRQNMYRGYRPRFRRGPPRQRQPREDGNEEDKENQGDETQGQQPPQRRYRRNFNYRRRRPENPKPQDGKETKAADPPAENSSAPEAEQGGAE
Description: Pulldown assay using biotinylated SU056: protein pulldown assay was performed using biotinylated SU056. […] Pulldown from cells: OVCAR8 cells were treated with 2.5 μM biotinylated SU056 for 1.5 h. Treated cells were collected and lysed using M-PER™ lysis solution (Thermo Scientific, #78503), supplemented with Halt protease and phosphatase inhibitor cocktail (Thermo Scientific, #78440). 300 μg protein was incubated with magnetic conjugate streptavidin bead (CST, #5947) at 4° C. on rocker overnight. […] Pulldown from cell lysates: OVCAR8 cells were collected and lysed using M-PER™ lysis solution (Thermo Scientific, #78503), supplemented with Halt protease and phosphatase inhibitor cocktail (Thermo Scientific, #78440). 1000 μg protein was incubated with 10 μM biotinylated SU056 at 4° C. on rocker overnight followed by overnight incubation with magnetic conjugate streptavidin bead (CST, #5947) at 4° C. After both the pulldown, biotin-streptavidin conjugates were pulldown and washed using magnetic rack. After three washing, beads were resuspended in 2×SDS sample buffer followed by heating at 90-100° C. for 5 min. Samples were resolved and probed with GBP1 (Abnova, #H00002633-PW1, 1:2000) and YB-1 (CST, #8475; 1:2000) as described above in immunoblotting. […]

`O=C1OCC2=C1C(c1cccc(F)c1)c1cc3c(cc1N2CCO)OCO3` (stereo not drawn) [SU056, 9-(3-fluorophenyl)-5-(2-hydroxyethyl)-6,9-dihydro-[1,3]dioxolo[4,5-g]furo[3,4-b]quinolin-8(5H)-one] gave a ΔTm at 2.5 µM [1] of 4.03 ± 1.07 °C, a ΔTm at 2.5 µM [2] of 5.36 ± 0.76 °C and a ΔTm at 2.5 µM [3] of 5.4 ± 1.08 °C. It also gave a ΔTm at 2.5 µM [4] of 5.89 ± 1.18 °C, a ΔTm at 2.5 µM [5] of 4.43 ± 1.31 °C and an IC50 [6] of 1860 nM. For the same compound, the IC50 [7] was 1110 nM, the IC50 [8] was 8.74 µM and the IC50 [9] was 2370 nM. It also gave an IC50 [10] of 2710 nM, an IC50 [11] of 3.03 µM and an IC50 [12] of 7.06 µM. The IC50 [13] was 1530 nM, the IC50 [14] was 1520 nM and the IC50 [15] was 4.19 µM. For the same compound, the IC50 [16] was 353 nM, the IC50 [17] was 357 nM and the IC50 [18] was 1440 nM. For the same compound, the IC50 [19] was 187 nM, the IC50 [20] was 1120 nM and the IC50 [21] was 3.02 µM. The IC50 [22] was 50 µM, the IC50 [23] was 3.96 µM and the IC50 [24] was 2020 nM. It also gave an IC50 [25] of 1270 nM, an IC50 [26] of 4.33 µM and an IC50 [27] of 2280 nM. The IC50 [28] was 1260 nM, the IC50 [29] was 3.05 µM and the IC50 [30] was 3000 nM. It also gave an IC50 [31] of 820 nM, an IC50 [32] of 1650 nM and an IC50 [33] of 2500 nM. For the same compound, the IC50 [34] was 50 µM, the IC50 [35] was 2250 nM and the “physical interaction with YB-1 (pulldown)” value [36] was “physically interacts with YB-1”.
